Test results: US20070207946A1, “Dipeptidyl peptidase IV inhibitors and their uses for lowering blood pressure levels” (priority 2001, published 2007)
Where two headings read alike, the source gives them in different places.

What was measured:
plasma DPIV activity = biological target: T1, plasma DPIV activity (Rattus norvegicus, UniProt P14740); assay: DPIV inhibiting activity after intravasal and oral administration to Wistar rats; assay type: in vivo; conditions: rat
T1 construct: from tissue; host or cells: plasma of Wistar rats
Description: Male Wistar rats (Shoe: Wist(Sho)) with a body weight ranging between 250 and 350 g were purchased from Tierzucht Schönwalde (Schönwalde, Germany).
Animals were single-caged under conventional conditions with controlled temperature (22±2° C.) on a 12/12 hours light/dark cycle (light on at 06:00 AM). Standard pelleted chow (ssniff® Soest, Germany) and tap water acidified with HCl were allowed ad libitum.
After ≧one week of adaptation at the housing conditions, catheters were implanted into the carotid artery of Wistar rats under general anaesthesia (i.p. injection of 0.25 ml/kg b.w. Rompun® [2%], BayerVital, Germany and 0.5 ml/kg b.w. Ketamin 10, Atarost GmbH & Co., Twistringen, Germany). The animals were allowed to recover for one week. The catheters were flushed with heparin-saline (100 IU/ml) three times per week. In case of catheter dysfunction, a second catheter was inserted into the contra-lateral carotid artery of the respective rat. After one week of recovery from surgery, this animal was reintegrated into the study. In case of dysfunction of the second catheter, the animal was withdrawn from the study. A new animal was recruited and the experiments were continued in the planned sequence, beginning at least 7 days after catheter implantation.
After overnight fasting, 100 μl samples of heparinised arterial blood were collected at −30, −5, and 0 min. […] In the case of oral administration, an additional volume of 1 ml saline was injected into the arterial catheter. In the case of infra-arterial administration, the catheter was immediately flushed with 30 μl saline and an additional 1 ml of saline was given orally via the feeding tube.
All blood samples were collected into ice cooled Eppendorf tubes (Eppendorf-Netheler-Hinz, Hamburg, Germany) filled with 10 μl 1M sodium citrate buffer (pH 3.0) for plasma DPIV activity measurement. Eppendorf tubes were centrifuged immediately (12000 rpm for 2 min, Hettich Zentrifuge EBA 12, Tuttlingen; Germany): The plasma fractions were stored on ice until analysis or were frozen at −20° C. until analysis. All plasma samples were labelled with the following data:
The assay mixture for determination of plasma DPIV activity consisted of 80 μl reagent and 20 μl plasma sample. […] The DPIV activity was expressed in mU/ml.
All parameters were analysed in a descriptive manner including mean and SD.

[1] = test system: Dipeptidyl Peptidase I (DP I, Cathepsin C); assay: Cross reacting enzymes - dipeptidyl peptidase I; assay type: biochemical; conditions: concentration range 1*10^−5 M-1*10^−7M; MES buffer pH5.6
Description: DP I or cathepsin C is a lysosomal cysteine protease which cleaves off dipeptides from the N-terminus of their substrates (Gutman, H. R. & Fruton, J. S., 1948, J. Biol: Chem., 174, 851-858). It is classified as a cysteine protease. The enzyme used was purchased from Qiagen (Qiagen GmbH, Hilden, Germany). In order to get a fully active enzyme, the enzyme was diluted 1000 fold in MES buffer pH5.6 (40 mM MES, 4 mM DTT, 4 mM KCl, 2 mM EDTA, 0.015% Brij) and pre-incubated for 30 min at 30° C.
50 μl glutaminyl pyrrolidine or glutaminyl thiazolidine in a concentration range of 1*10^−5 M-1*10^−7M were admixed with 110 μl buffer-enzyme-mixture. The assay mixture was pre-incubated at 30° C. for 15 min. After pre-incubation, 100 μl histidylseryl-[…]-nitroaniline (2*10^−5M) was added and measurement of yellow color development due to β-nitroaniline release was performed at 30° C. and […] for 10 min., using a plate reader (HTS7000 plus, Applied Biosystems, Weiterstadt, Germany).
The IC50-values were calculated using Graphit 4.0.15 (Erithacus Software, Ltd., UK).

diabetic Zucker rats = assay: Dose escalation study in fatty Zucker rats, oral glucose tolerance test; assay type: in vivo, rat; conditions: 2 g/kg glucose
Description: N=30 male Zucker rats (fa/fa), mean age 11 weeks (5-12 weeks), mean body weight 350 g (150-400 g), were purchased from Charles River (Sulzfeld, Germany).
After delivery they were kept for >12 weeks until nearly all fatty Zucker rats had the characteristics of manifest diabetes mellitus. A group of N=8 animals were recruited for testing three escalating doses of glutaminyl pyrrolidine vs. placebo (saline).
Placebo (1 ml saline, 0.154 mol/l) or escalating doses of glutaminyl pyrrolidine (5, 15 and 50 mg/kg b.w.) were administered to groups of N=8 fatty Zucker rats. 375 mg of glutaminyl pyrrolidine were dissolved in 1000 μl DMSO (E. Merck, Darmstadt; Germany [Dimethyl sulfoxide p.a.]). 10 ml saline were added and 1 ml aliquots, each containing 34.09 mg of glutaminyl pyrrolidine, were stored at −20° C. For preparation of the test substance, dose dependent aliquots were diluted in saline.
After overnight fasting, placebo or test substance were administered to the fatty Zucker rats via feeding tube orally (15 G, 75 mm; Fine Science Tools, Heidelberg, Germany) at −10 min An oral glucose tolerance test (OGTT) with 2 g/kg b.w. glucose (40% solution, B. Braun Melsungen, Melsungen, Germany) was administered at ±0 min via a second feeding tube. Venous blood samples from the tail veins were collected at −30 min, −15 min, ±0 min and at 5, 10, 15, 20, 30, 40, 60, 90 and 120 min into 20 μl glass capillaries, which were placed in standard tubes filled with 1 ml solution for blood glucose measurement.
Glucose levels were measured using the glucose oxidase procedure (Super G Glucose analyzer; Dr. Müller Gerätebau, Freital, Germany).
Statistical evaluations and graphics were performed with PRISM® 3.02 (GraphPad Software, Inc.). All parameters were analysed in a descriptive manner including mean and SD.
After delivery they were kept for >12 weeks until nearly all fatty Zucker rats had the characteristics of manifest diabetes mellitus. […]
Glucose levels were measured using the glucose oxidase procedure (Super G Glucose analyzer; Dr. Möller Gerätebau, Freital, Germany).

T1 sequence (P14740 38-767 limits assumed): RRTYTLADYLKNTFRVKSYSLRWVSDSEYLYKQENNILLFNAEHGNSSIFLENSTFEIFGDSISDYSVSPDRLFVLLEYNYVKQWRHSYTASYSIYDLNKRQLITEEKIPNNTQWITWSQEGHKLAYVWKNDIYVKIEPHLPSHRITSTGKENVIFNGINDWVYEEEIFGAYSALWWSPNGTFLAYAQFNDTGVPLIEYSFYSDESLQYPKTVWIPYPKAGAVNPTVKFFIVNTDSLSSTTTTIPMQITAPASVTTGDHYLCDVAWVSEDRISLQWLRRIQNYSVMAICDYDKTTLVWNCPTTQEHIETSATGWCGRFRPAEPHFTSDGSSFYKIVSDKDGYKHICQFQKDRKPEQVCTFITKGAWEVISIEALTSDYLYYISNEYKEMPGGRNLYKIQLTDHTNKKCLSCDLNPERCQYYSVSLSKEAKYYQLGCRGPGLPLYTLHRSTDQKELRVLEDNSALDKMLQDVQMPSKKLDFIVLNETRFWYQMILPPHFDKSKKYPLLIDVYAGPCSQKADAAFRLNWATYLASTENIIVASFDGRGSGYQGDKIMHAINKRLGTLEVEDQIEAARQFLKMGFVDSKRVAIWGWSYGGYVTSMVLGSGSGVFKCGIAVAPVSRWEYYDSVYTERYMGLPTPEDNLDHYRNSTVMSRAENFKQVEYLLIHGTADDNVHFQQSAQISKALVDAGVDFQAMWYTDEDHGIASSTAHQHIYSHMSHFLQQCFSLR

inhibition at 100 mg/kg (plasma DPIV activity; iv, intra-vasal (intra-arterial) route, read-out: in vivo DPIV-inhibition at tmax, i.v.): 80% | inhibition at 100 mg/kg (plasma DPIV activity; oral, read-out: in vivo DPIV-inhibition at tmax, p.o.): 67% | inhibition of DP I enzyme activity [1]: No inhibition
SMILES: NC(=O)CCC(N)C(=O)N1CCCC1 (stereo not drawn) [Gln-Pyrr, glutaminyl pyrrolidine]
glucose tolerance (OGTT) (diabetic Zucker rats; 5 mg/kg b.w. oral): limited improvement | elevated blood glucose levels and glucose tolerance (OGTT) (diabetic Zucker rats; 15 mg/kg oral): Significant lowering | elevated blood glucose levels and glucose tolerance (OGTT) (diabetic Zucker rats; 50 mg/kg b.w. oral): Significant lowering
